Experimental data from the NIST ThermoML archive (doi:10.1021/je030207i).

How the values were obtained:
[1] = Liquid; for Normal boiling temperature: Ebulliometric method (Recirculating still); for mass density: 298.15 K, 101.3 kPa
[2] = excess molar enthalpy (molar enthalpy of mixing); xn = mol fraction of the nth substance listed; conditions: 101.3 kPa, Liquid, Flow calorimetry

OCCO [1,2-ethanediol]
Conditions | Normal boiling temperature [°C]
[1] | 197.23

CCO [ethanol]
[1]
Conditions | Normal boiling temperature [°C] | mass density [kg/m3]
– | 78.26 | 785.2

OCCO [1,2-ethanediol] + CCCCO
excess molar enthalpy [kcal/mol], [2]
Conditions | 298.15 K | 308.15 K | 323.15 K
x1 = 0.0798 | – | – | 0.0775
x1 = 0.0803 | 0.0708 | 0.0745 | –
x1 = 0.1548 | 0.115 | 0.122 | –
x1 = 0.1552 | – | – | 0.124
x1 = 0.225 | 0.144 | 0.152 | –
x1 = 0.2253 | – | – | 0.159
x1 = 0.2912 | 0.161 | 0.171 | –
x1 = 0.2914 | – | – | 0.179
x1 = 0.3537 | 0.172 | 0.181 | –
x1 = 0.354 | – | – | 0.191
x1 = 0.4129 | 0.176 | 0.186 | –
x1 = 0.4131 | – | – | 0.197
x1 = 0.4691 | 0.177 | 0.187 | –
x1 = 0.4692 | – | – | 0.199
x1 = 0.5223 | – | 0.185 | –
x1 = 0.5224 | 0.175 | – | 0.196
x1 = 0.573 | 0.17 | 0.18 | 0.19
x1 = 0.6211 | – | 0.172 | 0.184
x1 = 0.6212 | 0.163 | – | –
x1 = 0.6671 | 0.154 | 0.163 | 0.172
x1 = 0.7108 | – | – | 0.16
x1 = 0.7109 | 0.143 | 0.152 | –
x1 = 0.7527 | 0.132 | 0.139 | 0.147
x1 = 0.7926 | 0.117 | 0.124 | 0.132
x1 = 0.8308 | 0.103 | 0.108 | –
x1 = 0.8309 | – | – | 0.116
x1 = 0.8675 | 0.0857 | 0.0913 | 0.0944
x1 = 0.9026 | 0.0679 | 0.0715 | 0.0749
x1 = 0.9362 | 0.0466 | 0.0485 | –
x1 = 0.9363 | – | – | 0.0521
x1 = 0.9686 | 0.0243 | 0.026 | –
x1 = 0.9687 | – | – | 0.0267

CO [methanol]
[1]
Conditions | Normal boiling temperature [°C] | mass density [kg/m3]
– | 64.47 | 786.4

OCCO [1,2-ethanediol] + CCCO
excess molar enthalpy [kcal/mol], [2]
Conditions | 298.15 K | 308.15 K | 323.15 K
x1 = 0.0644 | – | – | 0.0566
x1 = 0.0664 | 0.0498 | 0.0535 | –
x1 = 0.13 | 0.0849 | 0.0912 | 0.0966
x1 = 0.1915 | 0.109 | 0.117 | 0.125
x1 = 0.2511 | 0.126 | 0.135 | 0.144
x1 = 0.3089 | 0.137 | 0.147 | 0.156
x1 = 0.3648 | 0.144 | 0.152 | 0.163
x1 = 0.4191 | 0.147 | 0.155 | –
x1 = 0.4192 | – | – | 0.167
x1 = 0.4718 | 0.147 | 0.156 | 0.167
x1 = 0.5229 | 0.144 | 0.153 | 0.163
x1 = 0.5725 | 0.138 | 0.148 | 0.158
x1 = 0.6207 | 0.132 | 0.141 | 0.15
x1 = 0.6676 | 0.124 | 0.132 | 0.141
x1 = 0.7131 | 0.114 | 0.121 | 0.129
x1 = 0.7574 | 0.102 | 0.109 | 0.116
x1 = 0.8005 | 0.0897 | 0.0942 | 0.101
x1 = 0.8425 | 0.0741 | 0.0784 | 0.0838
x1 = 0.8833 | – | – | 0.0651
x1 = 0.8834 | 0.0581 | 0.0611 | –
x1 = 0.9231 | – | – | 0.0448
x1 = 0.9232 | 0.04 | 0.0426 | –
x1 = 0.9619 | 0.0209 | 0.0218 | 0.0229

OCCO [1,2-ethanediol] + CO
[2]
Conditions | excess molar enthalpy [kcal/mol]
298.15 K, x1 = 0.037 | 0.00564
298.15 K, x1 = 0.0748 | 0.0106
298.15 K, x1 = 0.1137 | 0.0147
298.15 K, x1 = 0.1538 | 0.0184
298.15 K, x1 = 0.195 | 0.0216
298.15 K, x1 = 0.2374 | 0.024
298.15 K, x1 = 0.2811 | 0.0263
298.15 K, x1 = 0.3262 | 0.0274
298.15 K, x1 = 0.3726 | 0.0287
298.15 K, x1 = 0.4206 | 0.0289
298.15 K, x1 = 0.4701 | 0.0289
298.15 K, x1 = 0.5212 | 0.0282
298.15 K, x1 = 0.574 | 0.027
298.15 K, x1 = 0.6286 | 0.0251
298.15 K, x1 = 0.6851 | 0.0226
298.15 K, x1 = 0.7436 | 0.0197
298.15 K, x1 = 0.8042 | 0.0157
298.15 K, x1 = 0.867 | 0.0114
298.15 K, x1 = 0.9321 | 0.00591
308.15 K, x1 = 0.0372 | 0.00594
308.15 K, x1 = 0.0752 | 0.0113
308.15 K, x1 = 0.1143 | 0.0158
308.15 K, x1 = 0.1545 | 0.0196
308.15 K, x1 = 0.1958 | 0.0234
308.15 K, x1 = 0.2384 | 0.0258
308.15 K, x1 = 0.2822 | 0.0282
308.15 K, x1 = 0.3274 | 0.0298
308.15 K, x1 = 0.3739 | 0.0307
308.15 K, x1 = 0.4219 | 0.0314
308.15 K, x1 = 0.4715 | 0.0311
308.15 K, x1 = 0.5226 | 0.0302
308.15 K, x1 = 0.5754 | 0.0285
308.15 K, x1 = 0.6299 | 0.0269
308.15 K, x1 = 0.6863 | 0.0243
308.15 K, x1 = 0.7447 | 0.021
308.15 K, x1 = 0.8051 | 0.0169
308.15 K, x1 = 0.8676 | 0.0121
308.15 K, x1 = 0.9325 | 0.00632
323.15 K, x1 = 0.0371 | 0.00686
323.15 K, x1 = 0.075 | 0.0127
323.15 K, x1 = 0.114 | 0.0179
323.15 K, x1 = 0.154 | 0.0219
323.15 K, x1 = 0.1953 | 0.0258
323.15 K, x1 = 0.2378 | 0.0291
323.15 K, x1 = 0.2815 | 0.0316
323.15 K, x1 = 0.3266 | 0.0332
323.15 K, x1 = 0.3732 | 0.0343
323.15 K, x1 = 0.4211 | 0.035
323.15 K, x1 = 0.4706 | 0.0344
323.15 K, x1 = 0.5218 | 0.034
323.15 K, x1 = 0.5746 | 0.0322
323.15 K, x1 = 0.6292 | 0.0298
323.15 K, x1 = 0.6856 | 0.0271
323.15 K, x1 = 0.744 | 0.0231
323.15 K, x1 = 0.8046 | 0.0185
323.15 K, x1 = 0.8673 | 0.013
323.15 K, x1 = 0.9323 | 0.00668
